The values below come from PubChem BioAssay AID1671224.

The target in the experiment is Tyrosine-protein kinase BTK (Homo sapiens) (UniProt Q06187). Kind of experiment: inhibitors of human BTK tyrosine kinase activity – biochemical, Z'-LYTE, FRET readout, direct format, dose response (AID 1671224). As to conditions: recombinant BTK, Z'-LYTE FRET peptide phosphorylation.

A word on the IC50: it is the concentration at which inhibition is half-maximal.

Chain of Tyrosine-protein kinase BTK (Homo sapiens) (Q06187 whole entry, looked up): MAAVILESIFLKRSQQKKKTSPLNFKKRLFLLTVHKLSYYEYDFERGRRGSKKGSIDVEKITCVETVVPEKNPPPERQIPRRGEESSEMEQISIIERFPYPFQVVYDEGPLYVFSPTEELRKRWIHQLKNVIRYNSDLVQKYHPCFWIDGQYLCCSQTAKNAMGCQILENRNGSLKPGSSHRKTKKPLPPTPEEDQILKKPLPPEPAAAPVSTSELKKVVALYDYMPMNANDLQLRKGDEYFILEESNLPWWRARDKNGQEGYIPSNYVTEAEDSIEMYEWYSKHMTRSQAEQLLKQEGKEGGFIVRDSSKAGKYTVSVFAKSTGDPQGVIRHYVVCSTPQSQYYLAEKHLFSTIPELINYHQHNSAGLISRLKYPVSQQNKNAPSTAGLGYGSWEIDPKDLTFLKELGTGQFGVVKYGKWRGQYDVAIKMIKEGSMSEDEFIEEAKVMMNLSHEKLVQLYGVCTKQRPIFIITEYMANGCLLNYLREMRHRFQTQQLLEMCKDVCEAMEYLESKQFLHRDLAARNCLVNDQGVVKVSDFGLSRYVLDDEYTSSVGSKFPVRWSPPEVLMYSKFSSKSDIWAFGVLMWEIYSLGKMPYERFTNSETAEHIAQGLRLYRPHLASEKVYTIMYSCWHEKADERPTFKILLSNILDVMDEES

On to `COc1cc2ncnc(Nc3cccc(Cl)c3)c2cc1OC`, for which the half-maximal inhibitory concentration (IC50) is 3.61 µM.
